Assay results published in publication PMC7503500, “A Structure-Activity Relationship Comparison of Imidazodiazepines Binding at Kappa, Mu, and Delta Opioid Receptors and the GABAA Receptor” (Molecules, 2020).
Entries after “also recorded” stand apart in the source; their conditions may differ. Where two headings read alike, the source gives them in different places.

Legend:
[1] = test system: synaptic benzodiazepine-sensitive receptors (BZR), GABAAR; experiment: 3H-flunitrazepam binding, rat brain homogenate; settings: for BZR % (percent inhibition): at 10,000 nM; for Ki: read-out: BZR (Ki)
µ opioid receptor (MOR) = µ opioid receptor (MOR) (Homo sapiens, UniProt P35372); experiment: Radioligand competition binding, MOR ([3H]-DAMGO), HEK293 cell homogenates; settings: [3H]-DAMGO; for inhibition at 10 µM: read-out: MOR % (percent inhibition), at 10,000 nM; for MOR % (percent inhibition): at 10,000 nM
δ opioid receptor (DOR) = δ opioid receptor (DOR) (Homo sapiens, UniProt P41143); experiment: Radioligand competition binding, DOR ([3H]-DADLE), HEK293 cell homogenates; settings: for inhibition at 10 µM: read-out: DOR % (percent inhibition), at 10,000 nM; for DOR % (percent inhibition): at 10,000 nM
κ opioid receptor (KOR) = κ opioid receptor (KOR) (Homo sapiens, UniProt P41145); experiment: Radioligand competition binding, KOR ([3H]-U69593), HEK293 cell homogenates; settings: for inhibition at 10 µM: read-out: KOR % (percent inhibition), at 10,000 nM; for inhibition at 10 µM / KOR % (percent inhibition): [3H]-U69593; for KOR % (percent inhibition): at 10,000 nM
[2] = read-out: KOR (Ki), [3H]-U69593, HEK293 homogenates

| SMILES | BZR % (percent inhibition) [1] | Ki [1] | inhibition at 10 µM (µ opioid receptor (MOR)) | inhibition at 10 µM (δ opioid receptor (DOR)) | Ki (κ opioid receptor (KOR)) | inhibition at 10 µM (κ opioid receptor (KOR)) | MOR % (percent inhibition) (µ opioid receptor (MOR)) | DOR % (percent inhibition) (δ opioid receptor (DOR)) | KOR % (percent inhibition) (κ opioid receptor (KOR)) | Ki (κ opioid receptor (KOR); [2]) | Ki (µ opioid receptor (MOR); read-out: MOR Ki, HEK293 homogenates) | KOR affinity (in words) (κ opioid receptor (KOR); screening at 10,000 nM) |
| --- | --- | --- | --- | --- | --- | --- | --- | --- | --- | --- | --- | --- |
| C#Cc1ccc2c(c1)C(c1ccccc1F)=N[C@@H](C)c1c(C(=O)OC(C)C)ncn1-2 [GL-I-31] | 97% | 245 nM | 32% | 8% | 65 nM | 94% |  |  |  |  |  |  |
| C#Cc1ccc2c(c1)C(c1ccccc1F)=N[C@@H](C)c1c(C(=O)OCCC)ncn1-2 [GL-I-32] | 98% | 148 nM | 9% | 14% | 64 nM | 95% |  |  |  |  |  |  |
| C#Cc1ccc2c(c1)C(c1ccccc1F)=N[C@@H](C)c1c(C(=O)OC(C)(C)CC)ncn1-2 [GL-I-33] | 96% | 117 nM | 30% | 25% | 34 nM | 94% |  |  |  |  |  |  |
| C#Cc1ccc2c(c1)C(c1ccccc1F)=N[C@@H](C)c1c(C(=O)OCC(F)(F)F)ncn1-2 [GL-I-36] | 77% | 418 nM | 8% | 0% | 411 nM | 85% |  |  |  |  |  |  |
| C#Cc1ccc2c(c1)C(c1ccccc1F)=N[C@@H](C)c1c(C(=O)OC3CC3)ncn1-2 [GL-I-38] | 96% | 127 nM | 18% | 16% | 68 nM | 95% |  |  |  |  |  |  |
| C#Cc1ccc2c(c1)C(c1ccccc1F)=N[C@@H](C)c1c(C(=O)NC(C)(C)C)ncn1-2 [GL-I-41] | 90% | 140 nM | 40% | 10% | 39 nM | 97% |  |  |  |  |  |  |
| C#Cc1ccc2c(c1)C(c1ccccc1F)=N[C@@H](C)c1c(C(=O)NCC)ncn1-2 [GL-I-43] | 94% | 44 nM | 22% | 3% | 102 nM | 95% |  |  |  |  |  |  |
| C#Cc1ccc2c(c1)C(c1ccccc1F)=N[C@@H](C)c1c(C(=O)N(C)C)ncn1-2 [GL-I-54] | 94% | 90 nM | 18% | 11% | 788 nM | 78% |  |  |  |  |  |  |
| C#Cc1ccc2c(c1)C(c1ccccc1F)=N[C@@H](C)c1c(C(=O)NC3CC3)ncn1-2 [GL-I-55] | 95% | 20 nM | 17% | 24% | 150 nM | 93% |  |  |  |  |  |  |
| C#Cc1ccc2c(c1)C(c1ccccc1F)=N[C@@H](C)c1c(-c3nc(C)no3)ncn1-2 [GL-I-65] | 79% | 1150 nM |  |  |  |  | 2% | 7% | 88% | 222 nM |  |  |
| C#Cc1ccc2c(c1)C(c1ccccc1F)=N[C@@H](C)c1c(-c3nc(CC)no3)ncn1-2 [GL-I-66] | 80% | 654 nM |  |  |  |  | 28% | 2% | 92% | 212 nM |  |  |
| C#Cc1ccc2c(c1)C(c1ccccc1F)=N[C@@H](C)c1c(C(=O)SCC)ncn1-2 [GL-I-77] | 92% | 124 nM | 41% | 4% | 125 nM | 95% |  |  |  |  |  |  |
| CCOC(=O)c1ncn2c1[C@H](C)N=C(c1ccccc1F)c1cc(C3CC3)ccc1-2 [GL-I-78] | 76% | 352 nM |  |  |  |  | 32% | 41% | 96% |  |  |  |
| C#Cc1ccc2c(c1)C(c1ccccc1F)=N[C@@H](C)c1c(-c3nc(C(C)C)no3)ncn1-2 [GL-I-81] | 83% | 839 nM |  |  |  |  | 64% | 25% | 93% | 127 nM | 2920 nM |  |
| CCOC(=O)c1ncn2c1[C@@H](C)N=C(c1ccccn1)c1cc(Br)ccc1-2 [GL-II-06] | 81% | 556 nM | 11% | 9% | 401 nM | 79% |  |  |  |  |  |  |
| C#Cc1ccc2c(c1)C(c1ccccn1)=N[C@H](C)c1c(C(=O)OCC)ncn1-2 [GL-II-19] | 71% | 1140 nM | 17% | 2% |  | 44% |  |  |  |  |  |  |
| C#Cc1ccc2c(c1)C(c1ccccn1)=N[C@H](C)c1c(C(=O)O)ncn1-2 [GL-II-30] | 65% | 431 nM | 20% | 4% |  | 0% |  |  |  |  |  |  |

| SMILES | BZR % (percent inhibition) [1] | Ki [1] | inhibition at 10 µM (µ opioid receptor (MOR)) | inhibition at 10 µM (δ opioid receptor (DOR)) | Ki (κ opioid receptor (KOR)) | inhibition at 10 µM (κ opioid receptor (KOR)) | MOR % (percent inhibition) (µ opioid receptor (MOR)) | DOR % (percent inhibition) (δ opioid receptor (DOR)) | KOR % (percent inhibition) (κ opioid receptor (KOR)) | Ki (κ opioid receptor (KOR); [2]) | Ki (µ opioid receptor (MOR); read-out: MOR Ki, HEK293 homogenates) | KOR affinity (in words) (κ opioid receptor (KOR); screening at 10,000 nM) |
| --- | --- | --- | --- | --- | --- | --- | --- | --- | --- | --- | --- | --- |
| C#Cc1ccc2c(c1)C(c1ccccn1)=N[C@H](C)c1c(C(=O)NC)ncn1-2 [GL-II-31] | 72% | 1700 nM | 17% | 3% |  | 23% |  |  |  |  |  |  |
| C#Cc1ccc2c(c1)C(c1ccccn1)=N[C@H](C)c1c(C(=O)OC)ncn1-2 [GL-II-32] | 63% | 1430 nM | 32% | 0% |  | 35% |  |  |  |  |  |  |
| C[C@H]1N=C(c2ccccn2)c2cc(Br)ccc2-n2cnc(C(=O)O)c21 [GL-II-51] | 84% | 181 nM | 0% | 0% |  | 11% |  |  |  |  |  |  |
| C#Cc1ccc2c(c1)C(c1ccccn1)=N[C@H](C)c1c(-c3nc(CC)no3)ncn1-2 [GL-II-54] | 66% | 2040 nM |  |  |  |  | 0% | 0% | 80% | 504 nM |  |  |
| C#Cc1ccc2c(c1)C(c1ccccc1F)=N[C@H](C)c1c(C(=O)N(C)C)ncn1-2 [GL-II-73] | 75% | 506 nM | 6% | 0% | 1190 nM | 58% |  |  |  |  |  |  |
| C#Cc1ccc2c(c1)C(c1ccccc1F)=N[C@H](C)c1c(C(=O)NCC)ncn1-2 [GL-II-74] | 84% | 68 nM | 10% | 0% | 194 nM | 86% |  |  |  |  |  |  |
| C#Cc1ccc2c(c1)C(c1ccccc1F)=N[C@H](C)c1c(C(=O)NC3CC3)ncn1-2 [GL-II-75] | 85% | 93 nM | 0% | 3% | 278 nM | 81% |  |  |  |  |  |  |
| C#Cc1ccc2c(c1)C(c1ccccc1F)=N[C@H](C)c1c(C(=O)N3CCCC3)ncn1-2 [GL-II-76] | 43% |  | 0% | 0% | 371 nM | 80% |  |  |  |  |  |  |
| C[C@H]1N=C(c2ccccc2F)c2cc(Br)ccc2-n2cnc(C(=O)O)c21 [GL-II-93] | 73% | 86 nM | 0% | 0% |  | 0% |  |  |  |  |  | No KOR affinity; also recorded: insignificant KOR affinity |
| C[C@H]1N=C(c2ccccc2F)c2cc(Br)ccc2-n2cnc(-c3cnco3)c21 [GL-III-36] | 86% | 319 nM |  |  |  |  | 0% | 12% | 88% | 246 nM |  |  |
| CCOC(=O)c1ncn2c1[C@@H](C)N=C(c1ccccc1F)c1cc(C3CC3)ccc1-2 [GL-III-42] | 62% | 726 nM |  |  |  | 86% | 0% | 13% |  |  |  |  |
| C[C@H]1N=C(c2ccccc2F)c2cc(Cl)ccc2-n2cnc(C(=O)O)c21 [GL-III-54] | 100% | 42 nM | 0% | 0% |  | 22% |  |  |  |  |  |  |
| Cc1noc(-c2ncn3c2[C@@H](C)N=C(c2ccccc2F)c2cc(Br)ccc2-3)n1 [GL-III-60] | 100% | 784 nM |  |  |  |  | 26% | 18% | 87% | 232 nM |  |  |
| Cc1noc(-c2ncn3c2[C@@H](C)N=C(c2ccccc2F)c2cc(C4CC4)ccc2-3)n1 [GL-III-63] | 28% |  |  |  |  |  | 8% | 31% | 78% | 678 nM |  |  |
| Cc1noc(-c2ncn3c2[C@@H](C)N=C(c2ccccn2)c2cc(C4CC4)ccc2-3)n1 [GL-III-64] | 92% | 1490 nM |  |  |  |  | 7% | 14% | 60% | 2050 nM |  |  |
| C#Cc1ccc2c(c1)C(c1ccccc1F)=N[C@H](C)c1c(C(=O)NC(C)C)ncn1-2 [GL-III-66] | 88% | 271 nM | 0% | 0% | 233 nM | 63% |  |  |  |  |  |  |
| C#Cc1ccc2c(c1)C(c1ccccn1)=NCc1c(C(=O)OCC)ncn1-2 [Hz-166] |  |  | 6% | 49% | 3820 nM | 60% |  |  |  |  |  |  |
